# In patent US11116747B2, “Compositions comprising proanthocyanidins and oenothein B” (Nugerontix Limited, priority 2014, dated 2021):
# Columns and labels:
# [1] = tested on: endothelin-1 (ET-1) mRNA; assay: Endothelin-1 mRNA levels in endothelial cells by qRT-PCR; format: cell-based, bovine; conditions: 24 h; OTb 1 μg/ml, Ap-OPC 1 μg/ml; normalised to RNA polymerase 2; FIG. 4(C)
# Method: (§1) The effects on endothelin-1 synthesis of purified procyanidins and ellagitannins, either alone or in combination, are tested on human, bovine or porcine aortic endothelial cells cultured in multi-well plates. Cells are grown in a CO2 incubator with specific growth media until becoming confluent. Purified extracts, chromatography fractions, or isolated procyanidins and ellagitannins are evaluated after dilution in cell culture media and then incubated for up to 24 h with the cultured cells. At the end of the incubation period cell culture media samples are collected, and endothelin-1 synthesis is determined by immunoassay of the media samples. ET-1 release for each treated well is expressed as a percentage of basal release from control wells containing cells incubated with cell culture medium alone. Data are compared and analysed for statistically significant differences using life sciences software such as Graphpad Prism (available from www.graphpad.com). At the end of the incubation period cells are lysed to obtain mRNA to measure changes in gene expression that indicate improved endothelial function. Analyses of relative levels of mRNA transcripts are undertaken by quantitative reverse transcription polymerase chain reaction (qRT-PCR) (Journal of Agricultural and Food Chemistry, 2010, 58: 4008-13). […]
# [2] = tested on: bovine aortic endothelial cells; assay: Binding of biotinylated-OPC to endothelial cells (neutravidin-horseradish peroxidase/TMB detection); format: cell-based; conditions: oenothein B 30 min preincubation, then biotinylated-OPC 1 μg/ml with oenothein B 30 min, FIG. 1(C)
# Method: Bovine aortic endothelial cells were incubated with oenothein B (μg/ml) from pomegranate juice for 30 min before addition of biotinylated-OPC (1 μg/ml) alone or with oenothein B (μg/ml) for 30 min. After removal of the incubation mixture, bound biotinylated-OPC was detected by incubation with neutravidin-horseradish peroxidase for 1 h; followed by addition of TMB substrate for 30 min after cells had been rinsed twice to remove excess neutravidin-horseradish peroxidase. Binding is indicated relative to biotinylated-OPC alone after subtraction of background signal. (All data are shown as mean±SD; *=P<0.05; **=P<0.01; ***=P<0.001 indicates significant differences from basal or control values). […] From this it can be concluded that oenothein B increases the affinity of endothelial cells for procyanidins, and enhances the effectiveness of procyanidins for reversing endothelial dysfunction.
# [3] = tested on: Kruppel-like factor 2 (KLF2) mRNA; assay: KLF2 mRNA levels in endothelial cells by qRT-PCR; format: cell-based, bovine; conditions: 24 h; OTb 1 μg/ml, Ap-OPC 1 μg/ml; normalised to RNA polymerase 2; FIG. 4(A)
# Method: as §1
# [4] = tested on: endothelial nitric oxide synthase (eNOS) mRNA; assay: eNOS mRNA levels in endothelial cells by qRT-PCR; format: cell-based, bovine; conditions: 24 h; OTb 1 μg/ml, Ap-OPC 1 μg/ml; normalised to RNA polymerase 2; FIG. 4(B)
# Method: as §1
# [5] = tested on: endothelin-1 synthesis; assay: Inhibition of endothelin-1 synthesis by endothelial cells (immunoassay of conditioned media); format: cell-based, bovine; conditions: for endothelin-1 synthesis, percentage of basal values: Rb-ET 2 μg/ml, GS-OPC 1 μg/ml, alone or in combination
# Method: The effects on endothelin-1 synthesis of purified procyanidins and ellagitannins, either alone or in combination, are tested on human, bovine or porcine aortic endothelial cells cultured in multi-well plates. Cells are grown in a CO2 incubator with specific growth media until becoming confluent. Purified extracts, chromatography fractions, or isolated procyanidins and ellagitannins are evaluated after dilution in cell culture media and then incubated for up to 24 h with the cultured cells. At the end of the incubation period cell culture media samples are collected, and endothelin-1 synthesis is determined by immunoassay of the media samples. ET-1 release for each treated well is expressed as a percentage of basal release from control wells containing cells incubated with cell culture medium alone. Data are compared and analysed for statistically significant differences using life sciences software such as Graphpad Prism (available from www.graphpad.com). At the end of the incubation period cells are lysed to obtain mRNA to measure changes in gene expression that indicate improved endothelial function. Analyses of relative levels of mRNA transcripts are undertaken by quantitative reverse transcription polymerase chain reaction (qRT-PCR) (Journal of Agricultural and Food Chemistry, 2010, 58: 4008-13).
# Oenothein B (>95% purity) was purified from pomegranate juice by Sephadex LH20 chromatography and reverse-phase HPLC (step 1—Apex Prepsil 8 μm C-18 10×250 mm HPLC column—Jones Chromatography; step 2 Luna 5 μm PFP(2) 4.6×250 mm HPLC column—Phenomenex). Ability to modify endothelial function was assessed by incubating oenothein B with bovine aortic endothelial cells and measuring endothelin-1 synthesis following previously described methods (Journal of Agricultural and Food Chemistry, 2010, 58: 4008-13).
# Biologically active biotin-labelled apple oligomeric procyanidins were prepared as follows: apple polyphenol extract was fractionated on Sephadex LH20 to obtain a fraction enriched in apple oligomeric procyanidins (OPC) tetramers to hexamers. The fraction was dried, re-dissolved in dimethyl formamide and reacted with the tetrafluorophenyl ester of triethyleneglycol-biotin (Thermo Scientific EZ-Link™ TFP-PEG3-Biotin). […]
# Ellagitannins: oenothein B (OTb, 1 μg/ml), raspberry seed extract (Rb-ET 2 μg/ml); oligomeric procyanidins (OPC): grape seed extract (GS-OPC, 1 μg/ml) and apple extract (Ap-OPC, 1 μg/ml) purified as above, were incubated either alone, or in combination, with bovine aortic endothelial cells for 6 h and 24 h (FIGS. 2(A) and 2(B)). […] Statistical differences were determined by ANOVA (**=P<0.01; ***=P<0.001 indicates significant difference compared to basal values; ^+++=P<0.001 compared to the individual components of the combinations alone). […]
smiles,measurement,setting,value
O=C(O[C@@H]1[C@H]2OC(=O)c3cc(O)c(O)c(O)c3Oc3cc4c(c(O)c3O)-c3c(cc(O)c(O)c3O)C(=O)OC[C@H]3O[C@@H](O)[C@H](OC(=O)c5cc(O)c(O)c(O)c5Oc5cc6c(c(O)c5O)-c5c(cc(O)c(O)c5O)C(=O)O[C@@H]1[C@@H](COC6=O)O[C@H]2O)[C@@H](OC(=O)c1cc(O)c(O)c(O)c1)[C@@H]3OC4=O)c1cc(O)c(O)c(O)c1 [oenothein B],"endothelin-1 (ET-1) mRNA levels, ratio to control",[1],largely unaffected
same,binding of biotinylated-OPC relative to biotinylated-OPC alone,[2],binding of procyanidins increases as oenothein B concentration increases
same,"KLF2 mRNA levels, ratio to control",[3],relatively insignificant
same,"eNOS mRNA levels, ratio to control",[4],little effect
same,"endothelin-1 synthesis, percentage of basal values","[5]; 6 h incubation, OTb 1 μg/ml, Ap-OPC 1 μg/ml, FIG. 2(A)",inhibited endothelin-1 synthesis
same,endothelin-1 total synthesis,"[5]; 24 h, OTb 1 μg/ml, Ap-OPC 1 μg/ml, Example 19, FIG. 4(D)",largely unaffected
same,"endothelin-1 synthesis, percentage of basal values","[5]; 24 h incubation, OTb 1 μg/ml, Ap-OPC 1 μg/ml, FIG. 2(B)",much reduced
same,inhibition of endothelin-1 synthesis,"[5]; bovine aortic endothelial cells, FIG. 1(A), 1(B)",concentration dependent
